# Reference: ChEMBL document CHEMBL1151175, “Cytotoxic sesquiterpenoids from Eupatorium chinense” (J Nat Prod, 2004)
# Columns and labels:
# HL-60 = assay: Cytotoxicity against human HL60 cells; type: functional, cell-based
# Bel-7402 = assay: Cytotoxicity against human Bel7402 cells; type: functional, cell-based
Structure (SMILES),IC50 (HL-60) [mg/L],IC50 (Bel-7402) [mg/L]
C=C1C(=O)O[C@@H]2/C=C(\C)C[C@H](O)/C=C(\C)C[C@@H](OC(=O)/C(C)=C/COC(C)=O)[C@@H]12 [EUPACHINILIDE I],0.94,3.6
CC[C@@]1(O)C(=O)OCc2c1cc1n(c2=O)Cc2cc3cc(O)ccc3nc2-1 [HYDROXYCAMPTOTHECIN],0.024,0.62
C=C1C(=O)O[C@H]2[C@H]1[C@H](OC(=O)/C(C)=C/CO)C[C@](O)(CCl)[C@@H]1[C@H](O)[C@H]3O[C@@]3(C)[C@H]21 [EUPACHINILIDE E],1.3,18
C=C1C(=O)O[C@H]2[C@H]1[C@H](OC(=O)/C(C)=C\C)CC(CO)=C1C[C@H](O)[C@](C)(O)[C@@H]12 [EUPACHINILIDE A],10.8,72.2
C=C1C(=O)O[C@H]2[C@H]1[C@H](OC(=O)/C(C)=C/CO)C[C@](O)(CCl)[C@@H]1[C@H](OC(C)=O)[C@H]3O[C@@]3(C)[C@H]21 [EUPACHNILIDE F],0.87,3.7
